Data as given in patent publication US20240190841A1, “MODULATORS OF BCL6 PROTEOLYSIS AND ASSOCIATED METHODS OF USE” (Arvinas Operations, Inc., priority 2022, published 2024).

Each compound was assayed against T1, BCL6 (Homo sapiens, UniProt P41182) (assay: Immunofluorescence high content imaging of BCL6 degradation in T47D cells). Details: T47D breast cancer epithelial cells, 3 days incubation.
T1 construct: endogenous in cells; host or cells: T47D breast cancer epithelial cells
Format: cell-based
Experimental: Immunofluorescence Protocol for High Content Imaging of BCL6
T47D cells were seeded in 100 μl volume of RPMI11640-10% FBS in a 96-well black/clear bottom plates for adherent lines (Corning #3904).
Day 1. T47D breast cancer epithelial cells were seeded at a density so that confluence is ˜70-90% at endpoint. Cells were seeded at 7K/0.1 mL/well the morning prior to the addition of exemplary bifunctional degradation compounds.
Day 2. Prepare an 11 point 3-fold serial dilution of exemplary bifunctional compound in DMSO and aliquot an appropriate volume to cell growth media to generate a 2× final concentration of exemplary bifunctional compound. Add an equal volume (0.1 ml) of 2× exemplary bifunctional compound/media mix to previously plated cells, for a final top concentration in aqueous cell growth media of 0.1 or 1 μM. Incubate for 3 days at 37° C., 5% CO2.
Day 5 Immunofluorescence. Discard cell media. Wash wells with 200 μl of room temperature phosphate-buffered saline (PBS). Prepared 4% paraformaldehyde (PFA) from 16% PFA (Electron Microscopy Sciences #15710) using 1×PBS. Fifty μL of 4% PF was added to each well and incubate for 15 minutes at room temperature to fix the cells. The PFA was aspirated and the cells washed twice with PBS (200 μL)).
Prepared 0.1% Triton X-100 in PBS using 10% triton X-100 stock. The cells were permeabilized by adding 100 μL of the 0.1% Triton X-100 in PBS to each well to permeabilize cells and incubating at room temperature for 15 minutes. Cells were washed twice with PBS.
Prepared 3% BSA/PBS (from Thermofisher #37515 Blocker BSA in TBS, 10%), and 100 μL was added to each well. The cells were incubated for at least 1 hour at room temperature.
Prepared 1% BSA/PBS using Blocker BSA/PBS, and the 3% BSA/PBS removed from the wells.
For no primary antibody controls, 50 μL 1% BSA/PBS was added.
Primary antibody (BCL6 Rb Ab, CST-14895, Cell Signaling) was diluted 1:300 in 1% BSA/PBS using Blocker BSA/PBS.
Fifty μl of primary antibody added to all remaining wells (i.e., all wells other than the primary antibody controls) and the cells were incubated overnight at 4° C. with slow orbital movement.
Day 6. Contents of the wells was removed and the cells washed four times with 200 μL PBS. 1% BSA/PBS was prepared using Blocker BSA in PBS.
Diluted secondary antibody goat anti-Rb IgG Alexa-488 1:1000, and cell mask-Alexa-647 1:3000 in 1% BSA/PBS in the same mix. Add 50 μL to each well and incubate at room temperature for 1 hour in the dark.
Cells were washed three times with 200 μL PBS, and then incubated for 10 minutes with 100 μL Hoechst dye at 1 μg/mL (20 mM stock) to stain cell nuclei. Wells were then washed with 200 μl PBS, and 100 μL of PBS was added to each well and the plate covered plate with a plastic opaque cover. Plates were stored at […] and covered in aluminum foil until imaged.
Plates were equilibrated to room temperature prior to reading. The bottom of the plate was wiped with 70% isopropanol immediately prior to imaging.
Imaging: • 10×, 4 fields/well, include Top hat smoothing in the analysis protocol.
Supplies/Reagents: • 16% paraformaldehyde: Electron Microscopy Sciences #15710 • Hoechst: Thermofisher #62249 • Blocker BSA in PBS, 10%: Thermofisher #37515 • Blocker BSA in TBS, 10%: Thermofisher #37520 • Goat anti-rabbit or mouse AlexaFluor-488: Thermofisher #A11008 • Cell mask deep red AlexaFluor-647: Thermofisher #C10046 • Wash buffer, PBS: 20×PBS, Thermofisher
With `CNC(=O)COc1cc2cc(Nc3nc(N4CCC(CN5CCC(N6CCN(c7ccc8c(c7F)CN(C7CCC(=O)NC7=O)C8=O)CC6)C(F)(F)C5)CC4)ncc3Cl)ccc2n(C(C)C)c1=O` (stereo not shown) [Compound 42, 2-({6-[(5-chloro-2-{4-[(4-{4-[2-(2,6-dioxopiperidin-3-yl)-4-fluoro-1-oxo-3H-isoindol-5-yl]piperazin-1-yl}-3,3-difluoropiperidin-1-yl)methyl]piperidin-1-yl}pyrimidin-4-yl)amino]-1-isopropyl-2-oxoquinolin-3-yl}oxy)-N-methylacetamide] the DC50 was < 0.01 µM and the Dmax was 50 to 70%.
For `CNC(=O)COc1cc2cc(Nc3nc(N4CCC(O[C@H]5C[C@H](N6CC[C@H](c7cc(C)c8c(c7F)CN([C@H]7CCC(=O)NC7=O)C8=O)[C@H](F)C6)C5)CC4)ncc3Cl)ccc2n(C(C)C)c1=O` [Compound 39, 2-({6-[(5-chloro-2-{4-[(1r,3r)-3-[(3S,4R)-4-{2-[(3S)-2,6-dioxopiperidin-3-yl]-4-fluoro-7-methyl-1-oxo-3H-isoindol-5-yl}-3-fluoropiperidin-1-yl]cyclobutoxy]piperidin-1-yl}pyrimidin-4-yl)amino]-1-isopropyl-2-oxoquinolin-3-yl}oxy)-N-methylacetamide], the DC50 was < 0.01 µM and the Dmax was ≥ 70%.
With `CNC(=O)COc1cc2cc(Nc3nc(N4CCC(CN5CCC(N6CCC(c7ccc8c(c7F)CN(C7CCC(=O)NC7=O)C8=O)CC6)C(F)(F)C5)CC4)ncc3Cl)ccc2n(C(C)C)c1=O` (stereo not shown) [Compound 43, 2-{[6-({5-chloro-2-[4-({4-[2-(2,6-dioxopiperidin-3-yl)-4-fluoro-1-oxo-2,3-dihydro-1H-isoindol-5-yl]-3′,3′-difluoro-[1,4′-bipiperidin]-1′-yl}methyl)piperidin-1-yl]pyrimidin-4-yl}amino)-2-oxo-1-(propan-2-yl)-1,2-dihydroquinolin-3-yl]oxy}-N-methylacetamide] the DC50 was < 0.01 µM and the Dmax was 50 to 70%.
For `CNC(=O)COc1cc2cc(Nc3nc(N4CCC(O[C@H]5C[C@H](N6CCN(c7ccc8c(c7)ncn8C7CCC(=O)NC7=O)CC6)C5)CC4)ncc3Cl)ccc2n(C(C)C)c1=O` (stereo partly shown) [Compound 23], the DC50 was < 0.01 µM and the Dmax was 50 to 70%.
`CCn1c(=O)n(C2CCC(=O)NC2=O)c2ccc(N3CCN([C@H]4C[C@H](OC5CCN(c6ncc(Cl)c(Nc7ccc8c(c7)cc(OCC(=O)NC)c(=O)n8C(C)C)n6)CC5)C4)CC3)cc21` (stereo partly shown) [Compound 7] was tested, and the DC50 was < 0.01 µM and the Dmax was ≥ 70%.
For `CNC(=O)COc1cc2cc(Nc3nc(N4CCC(O[C@H]5C[C@H](N6CCN(c7ccc8c(c7)n(C)c(=O)n8C7CCC(=O)NC7=O)[C@H](C)C6)C5)CC4)ncc3Cl)ccc2n(C(C)C)c1=O` (stereo partly drawn) [Compound 13, 2-({6-[(5-chloro-2-{4-[(1r,3r)-3-[(3R)-4-[1-(2,6-dioxopiperidin-3-yl)-3-methyl-2-oxo-2,3-dihydro-1H-1,3-benzodiazol-5-yl]-3-methylpiperazin-1-yl]cyclobutoxy]piperidin-1-yl}pyrimidin-4-yl)amino]-2-oxo-1-(propan-2-yl)-1,2-dihydroquinolin-3-yl}oxy)-N-methylacetamide], the DC50 was < 0.01 µM and the Dmax was ≥ 70%.
`CNC(=O)COc1cc2cc(Nc3nc(N4CCC(O[C@H]5C[C@H](N6CCN(c7ccc8c(c7Cl)[C@H](C)N([C@@H]7CCC(=O)NC7=O)C8=O)[C@H](C)C6)C5)CC4)ncc3Cl)ccc2n(C(C)C)c1=O` (single isomer, unassigned) [Compound 35] was tested, and the DC50 was < 0.01 µM and the Dmax was 50 to 70%.
For `CNC(=O)COc1cc2cc(Nc3nc(N4CCC(CN5CCC(C6CCN(c7ccc8c(c7F)CN(C7CCC(=O)NC7=O)C8=O)CC6)C(F)C5)CC4)ncc3Cl)ccc2n(C(C)C)c1=O` (stereo not shown) [Compound 44, 2-{[6-({5-chloro-2-[4-({1′-[2-(2,6-dioxopiperidin-3-yl)-4-fluoro-1-oxo-2,3-dihydro-1H-isoindol-5-yl]-3-fluoro-[4,4′-bipiperidin]-1-yl}methyl)piperidin-1-yl]pyrimidin-4-yl}amino)-2-oxo-1-(propan-2-yl)-1,2-dihydroquinolin-3-yl]oxy}-N-methylacetamide], the DC50 was < 0.01 µM and the Dmax was 50 to 70%.
For `CNC(=O)COc1cc2cc(Nc3nc(N4CCC(O[C@H]5C[C@H](N6CCN(c7cc(F)c8c(c7F)n(C)c(=O)n8C7CCC(=O)NC7=O)CC6)C5)CC4)ncc3Cl)ccc2n(C(C)C)c1=O` (stereo partly shown) [Compound 27, 2-({6-[(5-chloro-2-{4-[(1r,3r)-3-{4-[1-(2,6-dioxopiperidin-3-yl)-4,7-difluoro-3-methyl-2-oxo-2,3-dihydro-1H-1,3-benzodiazol-5-yl]piperazin-1-yl}cyclobutoxy]piperidin-1-yl}pyrimidin-4-yl)amino]-2-oxo-1-(propan-2-yl)-1,2-dihydroquinolin-3-yl}oxy)-N-methylacetamide], the DC50 was < 0.01 µM and the Dmax was ≥ 70%.
In the case of `CNC(=O)COc1cc2cc(Nc3nc(N4CCC(O[C@H]5C[C@H](N6CCN(c7ccc8c(c7)n(C)c(=O)n8C7CCC(=O)NC7=O)[C@@H](C)C6)C5)CC4)ncc3Cl)ccc2n(C(C)C)c1=O` (stereo partly drawn) [Compound 18, 2-({6-[(5-chloro-2-{4-[(1r,3r)-3-[(3S)-4-[1-(2,6-dioxopiperidin-3-yl)-3-methyl-2-oxo-2,3-dihydro-1H-1,3-benzodiazol-5-yl]-3-methylpiperazin-1-yl]cyclobutoxy]piperidin-1-yl}pyrimidin-4-yl)amino]-2-oxo-1-(propan-2-yl)-1,2-dihydroquinolin-3-yl}oxy)-N-methylacetamide], the DC50 was < 0.01 µM and the Dmax was ≥ 70%.
For `CNC(=O)COc1cc2cc(Nc3nc(N4CCC(O[C@H]5C[C@H](N6CCN(c7ccc8c(c7F)[C@@H](C)N([C@H]7CCC(=O)NC7=O)C8=O)[C@H](C)C6)C5)CC4)ncc3Cl)ccc2n(C(C)C)c1=O` (single isomer, unassigned) [Compound 30], the DC50 was 0.01 to 0.05 µM and the Dmax was < 50%.
With `CNC(=O)COc1cc2cc(Nc3nc(N4CCC(O[C@H]5C[C@H](N6CCN(c7cc8c(cn7)n(C7CCC(=O)NC7=O)c(=O)n8C)CC6)C5)CC4)ncc3Cl)ccc2n(C(C)C)c1=O` (stereo partly shown) [Compound 14, 2-({6-[(5-chloro-2-{4-[(1r,3r)-3-{4-[3-(2,6-dioxopiperidin-3-yl)-1-methyl-2-oxo-1H,2H,3H-imidazo[4,5-c]pyridin-6-yl]piperazin-1-yl}cyclobutoxy]piperidin-1-yl}pyrimidin-4-yl)amino]-2-oxo-1-(propan-2-yl)-1,2-dihydroquinolin-3-yl}oxy)-N-methylacetamide] the DC50 was < 0.01 µM and the Dmax was 50 to 70%.
For `CNC(=O)COc1cc2cc(Nc3nc(N4CCC(O[C@H]5C[C@H](N6CCN(c7ccc8c(ccn8C8CCC(=O)NC8=O)c7)CC6)C5)CC4)ncc3Cl)ccc2n(C(C)C)c1=O` (stereo partly shown) [Compound 17, 2-({6-[(5-chloro-2-{4-[(1r,3r)-3-{4-[1-(2,6-dioxopiperidin-3-yl)-1H-indol-5-yl]piperazin-1-yl}cyclobutoxy]piperidin-1-yl}pyrimidin-4-yl)amino]-2-oxo-1-(propan-2-yl)-1,2-dihydroquinolin-3-yl}oxy)-N-methylacetamide], the DC50 was < 0.01 µM and the Dmax was ≥ 70%.
`CNC(=O)COc1cc2cc(Nc3nc(N4CCC(O[C@H]5C[C@H](N6CCN(c7ccc8c(c7)n(C)c(=O)n8C7CCC(=O)NC7=O)CC6)C5)CC4)ncc3Cl)ccc2n(C(C)C)c1=O` (stereo partly shown) [Compound 3, 2-({6-[(5-chloro-2-{4-[(1r,3r)-3-{4-[1-(2,6-dioxopiperidin-3-yl)-3-methyl-2-oxo-2,3-dihydro-1H-1,3-benzodiazol-5-yl]piperazin-1-yl}cyclobutoxy]piperidin-1-yl}pyrimidin-4-yl)amino]-2-oxo-1-(propan-2-yl)-1,2-dihydroquinolin-3-yl}oxy)-N-methylacetamide] was tested, and the DC50 was < 0.01 µM and the Dmax was ≥ 70%.
